Results taken from patent US20110086759A1, “CHEMICAL COMPOUNDS” (SYNGENTA CROP PROTECTION, INC., priority 2007, published 2011).

Key:
Type in all cases: in vivo
[1] = tested on: Ipomea hederaceae (IPOHE); assay: Post-emergence biological efficacy, glasshouse pot test; conditions: Ipomoea hederacea, 312 h
Summary of the method: (§1)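 Pot-grown weeds were sprayed 8 days after sowing with test compound in acetone/water (50:50) with 0.5% Tween 20 at 1000 or 250 g/ha. Glasshouse at 24/16° C day/night, 14 h light, 65% humidity. Damage scored 0-100 (100 = total damage) after 13 days.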

[2] = tested on: Echinochloa crus-galli (ECHCG); assay: as above; conditions: 312 h
Summary of the method: as §1

Setaria faberi (SETFA) [3] = assay: as above; conditions: 312 h
Summary of the method: as §1

[4] = tested on: Alopecurus myosuroides (ALOMY); assay: as above; conditions: 312 h
Summary of the method: as §1

Solanum nigrum (SOLNI) [5] = assay: as above; conditions: 312 h
Summary of the method: as §1

[6] = tested on: Amaranthus retoflexus (AMARE); assay: as above; conditions: Amaranthus retroflexus, 312 h
Summary of the method: as §1

[7] = tested on: Ipomea hederaceae (IPOHE); assay: Pre-emergence biological efficacy, glasshouse pot test; conditions: Ipomoea hederacea, 312 h
Summary of the method: (§2)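 Damage rated 0–100 (100 = total kill) 13 days post-spray. Pots of standard soil were sown and sprayed after one day with test compound at 1000 or 250 g/ha in acetone/water (50:50) plus 0.5% Tween 20.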

[8] = tested on: Echinochloa crus-galli (ECHCG); assay: as above; conditions: 312 h
Summary of the method: as §2

Setaria faberi (SETFA) [9] = assay: as above; conditions: 312 h
Summary of the method: as §2

[10] = tested on: Alopecurus myosuroides (ALOMY); assay: as above; conditions: 312 h
Summary of the method: as §2

Solanum nigrum (SOLNI) [11] = assay: as above; conditions: 312 h
Summary of the method: as §2

[12] = tested on: Amaranthus retoflexus (AMARE); assay: as above; conditions: Amaranthus retroflexus, 312 h
Summary of the method: as §2

[13] = Rate 1,000 g/ha, post-emergence spray, evaluated after 13 days (100=total damage to plant; 0=no damage to plant), read-out: Percentage damage caused to weed species, post-emergence, IPOHE
[14] = Rate 1,000 g/ha, post-emergence spray, evaluated after 13 days (100=total damage to plant; 0=no damage to plant), read-out: Percentage damage caused to weed species, post-emergence, ECHCG
[15] = Rate 1,000 g/ha, post-emergence spray, evaluated after 13 days (100=total damage to plant; 0=no damage to plant), read-out: Percentage damage caused to weed species, post-emergence, SETFA
[16] = Rate 1,000 g/ha, post-emergence spray, evaluated after 13 days (100=total damage to plant; 0=no damage to plant), read-out: Percentage damage caused to weed species, post-emergence, ALOMY
[17] = Rate 1,000 g/ha, post-emergence spray, evaluated after 13 days (100=total damage to plant; 0=no damage to plant), read-out: Percentage damage caused to weed species, post-emergence, SOLNI
[18] = Rate 1,000 g/ha, post-emergence spray, evaluated after 13 days (100=total damage to plant; 0=no damage to plant), read-out: Percentage damage caused to weed species, post-emergence, AMARE
[19] = pre-emergence, rate 1,000 g/ha, evaluated after 13 days (100=total damage to plant; 0=no damage), read-out: Percentage damage caused to weed species, IPOHE
[20] = pre-emergence, rate 1,000 g/ha, evaluated after 13 days (100=total damage to plant; 0=no damage), read-out: Percentage damage caused to weed species, ECHCG
[21] = pre-emergence, rate 1,000 g/ha, evaluated after 13 days (100=total damage to plant; 0=no damage), read-out: Percentage damage caused to weed species, SETFA
[22] = pre-emergence, rate 1,000 g/ha, evaluated after 13 days (100=total damage to plant; 0=no damage), read-out: Percentage damage caused to weed species, ALOMY
[23] = pre-emergence, rate 1,000 g/ha, evaluated after 13 days (100=total damage to plant; 0=no damage), read-out: Percentage damage caused to weed species, SOLNI
[24] = pre-emergence, rate 1,000 g/ha, evaluated after 13 days (100=total damage to plant; 0=no damage), read-out: Percentage damage caused to weed species, AMARE
[25] = post-emergence, 1,000 g/ha, evaluated after 13 days (100=total damage; 0=no damage), read-out: Percentage damage caused to weed species, IPOHE
[26] = post-emergence, 1,000 g/ha, evaluated after 13 days (100=total damage; 0=no damage), read-out: Percentage damage caused to weed species, ECHCG
[27] = post-emergence, 1,000 g/ha, evaluated after 13 days (100=total damage; 0=no damage), read-out: Percentage damage caused to weed species, SETFA
[28] = post-emergence, 1,000 g/ha, evaluated after 13 days (100=total damage; 0=no damage), read-out: Percentage damage caused to weed species, ALOMY
[29] = post-emergence, 1,000 g/ha, evaluated after 13 days (100=total damage; 0=no damage), read-out: Percentage damage caused to weed species, SOLNI
[30] = post-emergence, 1,000 g/ha, evaluated after 13 days (100=total damage; 0=no damage), read-out: Percentage damage caused to weed species, AMARE
[31] = pre-emergence, 1,000 g/ha, evaluated after 13 days (100=total damage; 0=no damage), read-out: Percentage damage IPOHE
[32] = pre-emergence, 1,000 g/ha, evaluated after 13 days (100=total damage; 0=no damage), read-out: Percentage damage ECHCG
[33] = pre-emergence, 1,000 g/ha, evaluated after 13 days (100=total damage; 0=no damage), read-out: Percentage damage SETFA
[34] = pre-emergence, 1,000 g/ha, evaluated after 13 days (100=total damage; 0=no damage), read-out: Percentage damage ALOMY
[35] = pre-emergence, 1,000 g/ha, evaluated after 13 days (100=total damage; 0=no damage), read-out: Percentage damage SOLNI
[36] = pre-emergence, 1,000 g/ha, evaluated after 13 days (100=total damage; 0=no damage), read-out: Percentage damage AMARE

| SMILES | pest or weed control at 1000 g/ha [1, 13] | pest or weed control at 1000 g/ha [2, 14] | pest or weed control at 1000 g/ha (Setaria faberi (SETFA) [3]; [15]) | pest or weed control at 1000 g/ha [4, 16] | pest or weed control at 1000 g/ha (Solanum nigrum (SOLNI) [5]; [17]) | pest or weed control at 1000 g/ha [6, 18] | pest or weed control at 1000 g/ha [7, 19] | pest or weed control at 1000 g/ha [8, 20] | pest or weed control at 1000 g/ha (Setaria faberi (SETFA) [9]; [21]) | pest or weed control at 1000 g/ha [10, 22] | pest or weed control at 1000 g/ha (Solanum nigrum (SOLNI) [11]; [23]) | pest or weed control at 1000 g/ha [12, 24] | pest or weed control at 1000 g/ha [1, 25] | pest or weed control at 1000 g/ha [2, 26] | pest or weed control at 1000 g/ha (Setaria faberi (SETFA) [3]; [27]) | pest or weed control at 1000 g/ha [4, 28] | pest or weed control at 1000 g/ha (Solanum nigrum (SOLNI) [5]; [29]) | pest or weed control at 1000 g/ha [6, 30] | pest or weed control at 1000 g/ha [7, 31] | pest or weed control at 1000 g/ha [8, 32] | also measured |
| --- | --- | --- | --- | --- | --- | --- | --- | --- | --- | --- | --- | --- | --- | --- | --- | --- | --- | --- | --- | --- | --- |
| COC(=O)c1nc(-c2ccc(F)c(OC)c2)nc(NCc2ccco2)c1Cl [Compound 243-48, 5-Chloro-2-(4-fluoro-3-methoxyphenyl)-4-(furan-2-yl-methyl-amino)-6-methoxy-carbonylpyrimidine] | 10% | 40% | 60% | 10% | 60% | 100% | 0% | 0% | 40% | 10% | 10% | 60% |  |  |  |  |  |  |  |  |  |
| COC(=O)c1nc(-c2ccc(C)c(F)c2)nc(NCc2ccco2)c1Cl [Compound 240-48, 5-Chloro-2-(3-fluoro-4-methylphenyl)-4-(furan-2-yl-methyl-amino)-6-methoxy-carbonylpyrimidine] | 70% | 20% | 10% | 0% | 30% | 100% | 0% | 0% | 0% | 0% | 50% | 100% |  |  |  |  |  |  |  |  |  |
| COC(=O)c1nc(C2CC2)nc(NCc2ccccc2C(F)(F)F)c1Cl [Compound 4-75, 5-Chloro-2-cyclopropyl-6-methoxycarbonyl-4-(2-trifluoromethyl-phenylmethyl-amino)-pyrimidine] |  |  |  |  |  |  |  |  |  |  |  |  | 100% | 50% | 90% | 20% | 100% | 100% | 20% | 0% | pest or weed control at 1000 g/ha (Setaria faberi (SETFA) [9]; [33]): 10%; pest or weed control at 1000 g/ha [10, 34]: 10%; pest or weed control at 1000 g/ha (Solanum nigrum (SOLNI) [11]; [35]): 30%; pest or weed control at 1000 g/ha [12, 36]: 50% |
| COC(=O)c1nc(C2CC2)nc(NCc2nc3ccccc3s2)c1Cl [Compound 4-168, 4-(Benzothiazol-2-ylmethylamino)-5-chloro-2-cyclopropyl-6-methoxycarbonyl-pyrimidine] |  |  |  |  |  |  |  |  |  |  |  |  | 60% | 40% | 60% | 30% | 70% | 90% | 50% | 20% | pest or weed control at 1000 g/ha (Setaria faberi (SETFA) [9]; [33]): 0%; pest or weed control at 1000 g/ha [10, 34]: 20%; pest or weed control at 1000 g/ha (Solanum nigrum (SOLNI) [11]; [35]): 40%; pest or weed control at 1000 g/ha [12, 36]: 20% |
| COC(=O)c1nc(-c2ccc(Cl)cc2)nc(NCc2ccccc2)c1Cl [Compound 40-60, 5-Chloro-2-(4-chlorophenyl)-6-methoxycarbonyl-4-(phenylmethylamino) pyrimidine] | 100% | 0% | 0% | 0% | 70% | 60% | 0% | 50% | 0% | 20% | 30% | 90% |  |  |  |  |  |  |  |  |  |
| COC(=O)c1nc(C2CC2)nc(N[C@@H](Cc2cccc(C(F)(F)F)c2)C(=O)OC)c1Cl [4-286 (S), 5-Chloro-2-cyclopropyl-6-methoxycarbonyl-4-[(1S)-1-methoxy-carbonyl-2-(3-trifluoromethyl-phenyl)-ethylamino]-pyrimidine] |  |  |  |  |  |  |  |  |  |  |  |  | 50% | 10% | 20% | 10% | 80% | 100% | 100% | 20% | pest or weed control at 1000 g/ha (Setaria faberi (SETFA) [9]; [33]): 20%; pest or weed control at 1000 g/ha [10, 34]: 10%; pest or weed control at 1000 g/ha (Solanum nigrum (SOLNI) [11]; [35]): 80%; pest or weed control at 1000 g/ha [12, 36]: 90% |
| COC(=O)c1nc(C2CC2)nc(N(C)Cc2ccccc2Cl)c1Cl [Compound 5-61, 5-Chloro-4-[N-(2-chlorophenyl-methyl)-N-methyl-amino]-2-cyclopropyl-6-methoxycarbonyl-pyrimidine] | 90% | 80% | 80% | 20% | 90% | 100% | 70% | 40% | 40% | 30% | 20% | 70% |  |  |  |  |  |  |  |  |  |
| COC(=O)c1nc(C2CC2)nc(NCc2ccc(OC)c(OC)c2)c1Cl [Compound 4-112, 5-Chloro-2-cyclopropyl-4-(3,4-dimethoxyphenyl-methylamino)-6-methoxycarbonyl-pyrimidine] |  |  |  |  |  |  |  |  |  |  |  |  | 100% | 90% | 90% | 40% | 100% | 100% | 90% | 40% | pest or weed control at 1000 g/ha (Setaria faberi (SETFA) [9]; [33]): 80%; pest or weed control at 1000 g/ha [10, 34]: 50%; pest or weed control at 1000 g/ha (Solanum nigrum (SOLNI) [11]; [35]): 90%; pest or weed control at 1000 g/ha [12, 36]: 70% |
